The numbers were not newly measured in PMC5680437 (Journal of Clinical & Translational Endocrinology, 2015), which cites them from elsewhere.

For series [1] the following is noted: subcutaneous; ref Morrow et al. [18].
The test system of a further series is healthy volunteers. The following applies: ref Arnolds et al. [19].
For series [2] the following is noted: 0.2 U/kg dose; ref Heise et al. [20].

Consider insulin glulisine, for which, in series [1], the “Time to 50% of maximal concentration within the first hour” value was 21 min. In addition, the “AUC for glucose infusion rate (to maintain euglycemia)” value in the series on healthy volunteers is 30 mg/kg. Moreover, the “AUC for the glucose infusion rate in the first hour” value in series [2] was 102.3 mg/kg.
For the substance insulin lispro, the “Time to 50% of maximal concentration within the first hour” value in series [1] was 31 min. Besides, the “AUC for the glucose infusion rate in the first hour” value in series [2] is given as 83.1 mg/kg.
For the substance insulin aspart, in series [1], the “Time to 50% of maximal concentration within the first hour” value was 32 min. Further, the “AUC for glucose infusion rate (to maintain euglycemia)” value with healthy volunteers is reported as 16 mg/kg.
